Measurements as given in US20260216239A1 (Arizona Board of Regents on Behalf of the University of …, priority 2020, published 2026).

How the values were obtained:
[1] = tested on: C. scutulatus scutulatus venom; settings: CORM-2 as single agent; cited from earlier work
[2] = large dose of CORM-2 injected intravenously into rabbits; cited from earlier work
[3] = tested on: C. scutulatus scutulatus (type B) venom; experiment: Rabbit model of subcutaneous envenomation, thrombelastography and vital signs; type: in vivo, New Zealand White rabbits; settings: n=1
Source text: Male New Zealand White rabbits (2-3 kg) were procured from Charles River Laboratories (San Diego, CA, USA) and housed within our animal facility and allowed food and water ad libitum for at least 1 week prior to experimentation.
Rabbits were briefly restrained and had one ear closely clipped and cleaned with a 70% isopropyl alcohol pad. A 22 G plastic catheter was placed in the central ear artery and another similar catheter placed in the marginal ear vein; both catheters were connected to an end cap with a rubber diaphragm that allowed the withdrawal of blood samples and administration of medications. The animals were sedated intravenously with 1 mg/kg midazolam, with supplemental doses of 0.5-1 mg/kg provided during experimentation to maintain sedation. […] Heart rate (HR) and SpO2 were recorded at baseline and every 15 min thereafter until the end of the experiment.
An approximately 5 cm by 5 cm area of skin over either flank of the rabbit, midway between the lumbar spine and mid abdomen, was closely shaved and cleaned with a 70% isopropyl alcohol pad. A 1 cm circle was drawn with a felt tip marker in the center of this area, which served as the injection site for venom and antivenom as appropriate. After obtaining baseline HR value, SpO2 value, and the initial blood sample, venom was injected subcutaneously in the middle of the circle through a ⅝ inch long, 25 G needle. […]

[4] = tested on: Pseudonaja textilis venom; settings: previously characterized by this laboratory; cited from earlier work
Echis leucogaster venom [5] = experiment: Thrombelastography in human plasma of venom procoagulant activity after isolated exposure of venom to compounds; type: biochemical; settings: venom exposed 5 min to 100 μM CORM-2 in 5% human albumin; venom 1 μg/mL in plasma
Echis leucogaster venom [6] = settings: previously characterized by this laboratory; cited from earlier work
[7] = biological target: Mojave rattlesnake (Crotalus scutulatus scutulatus) venom type A (Crotalus scutulatus scutulatus, UniProt P62023); experiment: Thrombelastography in human plasma of PLA2-dependent anticoagulant activity of venom; type: biochemical
Experimental: With regard to materials and methods, Mojave rattlesnake (Crotalus scutulatus scutulatus) venom type A was originally obtained from the National Natural Toxins Research Center (NNTRC) located at Texas A&M University-Kingsville, Kingsville, TX, U.S.A. A previously unthawed aliquot of this venom used in a previous work (see, Nielsen V G (2019) J Thromb Thrombolysis 48, 256-262) was dissolved in calcium-free phosphate buffered saline (PBS, Sigma-Aldrich, Saint Louis, MO, USA) at a concentration of 50 mg/ml, and had been stored at −80° C. RuCl3 as obtained from Sigma-Aldrich, Saint Louis, MO, USA. Calcium chloride (CaCl2, 200 mM) was obtained from Haemonetics Inc., Braintree, MA, USA. Lastly, pooled normal human plasma (George King Bio-Medical, Overland Park, KS, USA) anticoagulated with sodium citrate (9 parts blood to 1 part 0.105M sodium citrate) stored at −80° C. was utilized in all subsequently described experiments.
Specific volumes of subsequently described plasma and chemical additives varied by condition but summated to 360 μl. Sample composition consisted of 320 μl of plasma; 16.4 μl of PBS, 20 μl of 200 mM CaCl2, and 3.6 μl of one of five subsequently described solutions, which were placed into a disposable cup in a computer-controlled Thrombelastograph® hemostasis system (Model 5000, Haemonetics Inc., Braintree, MA, USA) at 37° C., and then rapidly mixed by moving the cup up against and then away from the plastic pin five times before leaving the mixture between the cup and pin. The following elastic modulus-based parameters previously described (see, Nielsen V G (2019) J Thromb Thrombolysis 48, 256-262; Nielsen V G, Frank N, Matika R W (2018) Biometals 31, 51-59; Nielsen V G, Frank N, Turchioe B J (2019) Blood Coagul Fibrinolysis 30, 379-384; Nielsen V G (2021) J Thromb Thrombolysis, doi: 10.1007/s11239-020-02373-4) were determined: time to maximum rate of thrombus generation (TMRTG): this is the time interval (minutes) observed prior to maximum speed of clot growth; maximum rate of thrombus generation (MRTG): this is the maximum velocity of clot growth observed (dynes/cm^2/second); and total thrombus generation (TTG, dynes/cm^2), the final viscoelastic resistance observed after clot formation. Data were collected until maximum amplitude was reached as determined by the software of the thrombelastographic system.
Experiments involving plasma exposure to RuCl3 and venom utilized the following five experimental conditions: 1) control condition (C)—no venom, 1% addition of PBS (v/v) to plasma; 2) RuCl3 in water condition (R/W)—no venom, 1% addition (v/v) of 100 μM RuCl3 dissolved in water to plasma (final concentration 1 μM); 3) RuCl3 in PBS condition (R/P)—no venom, 1% addition (v/v) of 100 μM RuCl3 dissolved in PBS to plasma (final concentration 1 μM); 4) venom condition (V)—venom addition (v/v, 125 ng/ml final concentration as previously reported) in PBS to plasma; and, 5) venom exposed to RuCl3 dissolved in PBS condition (V+R/P)—venom and 100 μM RuCl3 1% addition (v/v) in PBS to plasma. All the solutions used for these five conditions to be placed in plasma remained at room temperature for five minutes prior to addition.

[8] = venom exposed 5 min to 100 μM RuCl3 in PBS vs RuCl3 naïve venom, venom 125 ng/ml

[C-]#[O+].[C-]#[O+].[C-]#[O+].[C-]#[O+].[C-]#[O+].[C-]#[O+].[Cl][Ru][Cl].[Cl][Ru][Cl] [CORM-2, tricarbonyldichlororuthenium(II) dimer]
anticoagulant effects of venom in vitro [1]: very effectively abrogated | tolerability [2]: well tolerated | plasmatic velocity of clot formation and strength ([3]; 10 mg/kg CORM-2 injected into venom site 5 min after venom 11.2 mg/kg): appeared to preserve the velocity of clot formation and strength until the third hour after venom injection | plasmatic velocity of clot formation ([3]; 20 mg/kg CORM-2 injected into venom site after venom 11.2 mg/kg): minimally affected for the three hours after venom injection | CORM-2/ iRM Inhibition [4]: Yes | procoagulant activity of venom (Echis leucogaster venom [5]): uninhibited | CORM-2/ iRM Inhibition (Echis leucogaster venom [6]): Yes

[Cl][Ru]([Cl])[Cl] [RuCl3, ruthenium(III) chloride]
neurotoxic, anticoagulant PLA2 activity ([7]; RuCl3 dissolved in PBS, 100 μM): inhibited | decrease in TMRTG values [7, 8]: 47% | increase in MRTG values [7, 8]: 375% | increase in TTG values [7, 8]: 231% | TMRTG, MRTG or TTG values ([7]; venom exposed to 100 μM RuCl3 in PBS vs control condition (no venom)): no significant differences
